Reference: publication PMC9170034 (Proceedings of the National Academy of Sciences of the …, 2022)
Where two headings read alike, the source gives them in different places.

Key:
SHV-1 = details: periplasmic extracts; nitrocefin; 5 min pre-incubation; ref 2 (Papp-Wallace et al., 2019); cited from earlier work
TEM-26 = system: TEM-26; parameters: method as in earlier work; details: periplasmic extracts; nitrocefin; 5 min pre-incubation; ref 2 (Papp-Wallace et al., 2019); cited from earlier work
CTX-M-15 = system: CTX-M-15; parameters: method as in earlier work; details: periplasmic extracts; nitrocefin; 5 min pre-incubation; ref 2 (Papp-Wallace et al., 2019); cited from earlier work
CMY-2 = system: CMY-2; parameters: method as in earlier work; details: periplasmic extracts; nitrocefin; 5 min pre-incubation; ref 2 (Papp-Wallace et al., 2019); cited from earlier work
OXA-10 [1] = target: T1, OXA-10 (Pseudomonas aeruginosa, UniProt P14489); assay: IC50/pIC50 determination with fluorescent reporter substrate FC-5 after pre-incubation; format: biochemical; details: Table S1, read-out: pIC50 at pH 7.5, OXA-10 (converted)
T1 construct: His tag (N); made in house
Protocol: Kinetic analyses were performed (at least in triplicate) using either BMG LABTECH PHERAstar or CLARIOstar plate readers. Unless stated otherwise, reactions were in 50 mM phosphate buffer, pH 7.5, containing 0.01% (vol/vol) aqueous Triton X-100, and, in the case of OXA-10, 10 mM sodium bicarbonate. […] Nonlinear regression analysis was performed with Prism 5 (GraphPad Software).
IC50s were determined as reported ([35]). […] The apparent inhibitory constant Kiapp and the second-order rate constant kinact/K (or k2/K) were determined using reported methods ([60]). SBLs were reacted with the reporter substrate in the presence of varied inhibitor concentrations. Reactions were initiated by SBL addition and immediately monitored for 60 to 120 s (until they plateaued). […] P=Vst+(V0−VS)(1−e^−kobst)/kobs+P0.

KPC-3 = system: KPC-3; parameters: method as in earlier work; details: periplasmic extracts; nitrocefin; 5 min pre-incubation; ref 2 (Papp-Wallace et al., 2019); cited from earlier work
AmpC E. cloacae = system: AmpC E. cloacae; parameters: method as in earlier work; details: periplasmic extracts; nitrocefin; 5 min pre-incubation; ref 2 (Papp-Wallace et al., 2019); cited from earlier work
OXA-48 = system: OXA-48; parameters: method as in earlier work; details: periplasmic extracts; nitrocefin; 5 min pre-incubation; ref 2 (Papp-Wallace et al., 2019); cited from earlier work
OXA-10 [2] = target: T1, OXA-10; assay: Kiapp and kinact/K determination in competition with FC-5; format: biochemical; details: OXA-10 (50 nM), FC-5 (5 µM); pH 7.5; 10 mM NaHCO3; read-out: Kiapp, OXA-10
Protocol: Kinetic analyses were performed (at least in triplicate) using either BMG LABTECH PHERAstar or CLARIOstar plate readers. Unless stated otherwise, reactions were in 50 mM phosphate buffer, pH 7.5, containing 0.01% (vol/vol) aqueous Triton X-100, and, in the case of OXA-10, 10 mM sodium bicarbonate. Assays were performed in competition with either the fluorescent reporter substrate FC-5 ([35]), using black-walled microplates (Greiner Bio-One μCLEAR, PS, F-bottom, black), and measuring fluorescence intensity (ʎex = 380 nm and ʎem = 460 nm), or with nitrocefin (NCF), using ultraviolet transparent plates (Greiner Bio-One UV-Star, COC, F-bottom, clear) and measuring absorbance (ʎAbs = 486 nm, using path-length correction). Nonlinear regression analysis was performed with Prism 5 (GraphPad Software).
IC50s were determined as reported ([35]). TEM-116 (1 nM), AmpCEC (500 pM), or OXA-10 (250 pM) were incubated with varied inhibitor concentrations at room temperature (r.t.) for the indicated time then assayed using 5 µM FC-5. The apparent inhibitory constant Kiapp and the second-order rate constant kinact/K (or k2/K) were determined using reported methods ([60]). SBLs were reacted with the reporter substrate in the presence of varied inhibitor concentrations. Reactions were initiated by SBL addition and immediately monitored for 60 to 120 s (until they plateaued). […]

OXA-51 = system: OXA-51; parameters: method as in earlier work; details: periplasmic extracts; nitrocefin; 5 min pre-incubation; ref 2 (Papp-Wallace et al., 2019); cited from earlier work
TEM-116 = TEM-116 (Escherichia coli, UniProt P62593, A182V/V82I); assay: SPE-MS study of prolonged reaction of SBL with penam sulfones; details: prolonged incubation (8 h) with 100 equiv.
Protocol: Mass spectra were acquired in the positive ion mode using an integrated autosampler/SPE RapidFire365 system (Agilent Technologies) coupled to an Agilent 6550 Accurate Mass QTOF spectrometer. After the indicated time, 50 μL of the solution was loaded onto a C4 SPE cartridge (Agilent Technologies), then washed with buffer A (100% [vol/vol] water, 0.1% [vol/vol] formic acid), then eluted into the mass spectrometer in buffer B (15% [vol/vol] water, 85% [vol/vol] acetonitrile, 0.1% [vol/vol] formic acid). The cartridge was reequilibrated in buffer A in between samples. Data were analyzed using MassHunter Qualitative Analysis software V.7 (Agilent Technologies) using the maximum entropy deconvolution algorithm.

SHV-49 = details: periplasmic extracts; nitrocefin; 5 min pre-incubation; ref 2 (Papp-Wallace et al., 2019); cited from earlier work
KPC-2 = system: KPC-2; parameters: method as in earlier work; details: periplasmic extracts; nitrocefin; 5 min pre-incubation; ref 2 (Papp-Wallace et al., 2019); cited from earlier work
OXA-58 = system: OXA-58; parameters: method as in earlier work; details: periplasmic extracts; nitrocefin; 5 min pre-incubation; ref 2 (Papp-Wallace et al., 2019); cited from earlier work
OXA-1 = system: OXA-1; parameters: method as in earlier work; details: periplasmic extracts; nitrocefin; 5 min pre-incubation; ref 2 (Papp-Wallace et al., 2019); cited from earlier work
CTX-M-14 = system: CTX-M-14; parameters: method as in earlier work; details: periplasmic extracts; nitrocefin; 5 min pre-incubation; ref 2 (Papp-Wallace et al., 2019); cited from earlier work
SHV (R244S) = system: SHV (R244S); parameters: method as in earlier work; details: periplasmic extracts; nitrocefin; 5 min pre-incubation; ref 2 (Papp-Wallace et al., 2019); cited from earlier work
TEM-30 = system: TEM-30; parameters: method as in earlier work; details: periplasmic extracts; nitrocefin; 5 min pre-incubation; ref 2 (Papp-Wallace et al., 2019); cited from earlier work

T1 sequence (P14489 20-266): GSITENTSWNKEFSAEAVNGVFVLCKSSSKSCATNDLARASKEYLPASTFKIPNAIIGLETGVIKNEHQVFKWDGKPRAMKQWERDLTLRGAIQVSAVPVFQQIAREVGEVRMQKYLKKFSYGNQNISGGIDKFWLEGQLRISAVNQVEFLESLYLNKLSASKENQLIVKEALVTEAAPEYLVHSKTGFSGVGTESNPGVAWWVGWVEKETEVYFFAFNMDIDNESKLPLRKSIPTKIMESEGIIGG

Which results are given for `C[C@]1(Cn2ccnn2)[C@H](C(=O)O)N2C(=O)C[C@H]2S1(=O)=O` [tazobactam]?
IC50 (SHV-1): 26 ± 3 nM; IC50 (TEM-26): 23 ± 1 nM; IC50 (CTX-M-15): 6 ± 1 nM; IC50 (CMY-2): 2500 ± 300 nM; IC50 (OXA-10 [1]; with 100 mM added NaHCO3, 0 min pre-incubation): 3890 nM; IC50 (OXA-10 [1]; with 100 mM added NaHCO3, 10 min pre-incubation): 1910 nM; IC50 (OXA-10 [1]; with 100 mM added NaHCO3, 30 min pre-incubation): 851 nM; IC50 (OXA-10 [1]; with 100 mM added NaHCO3, 60 min pre-incubation): 562 nM; IC50 (OXA-10 [1]; with 100 mM added NaHCO3, 360 min pre-incubation): 204 nM; IC50 (OXA-10 [1]; without added NaHCO3, 0 min pre-incubation): 5010 nM; IC50 (OXA-10 [1]; without added NaHCO3, 10 min pre-incubation): 1480 nM; IC50 (OXA-10 [1]; without added NaHCO3, 30 min pre-incubation): 891 nM; IC50 (OXA-10 [1]; without added NaHCO3, 60 min pre-incubation): 457 nM; IC50 (OXA-10 [1]; without added NaHCO3, 360 min pre-incubation): 234 nM; IC50 (KPC-3): 4400 ± 500 nM; IC50 (AmpC E. cloacae): 5100 ± 500 nM; IC50 (OXA-48): 1500 ± 200 nM; Ki (OXA-10 [2]): 469000 ± 80000 nM; IC50 (OXA-51): > 100000 nM; −18-Da species, TEM-116 (TEM-116): not observed; IC50 (SHV-49): 730 ± 80 nM; IC50 (KPC-2): 3700 ± 400 nM; IC50 (OXA-58): 26000 ± 3000 nM; IC50 (OXA-1): 8600 ± 900 nM; IC50 (CTX-M-14): […]; IC50 (SHV (R244S)): 390 ± 40 nM; IC50 (TEM-30): […]
